Here are results for one compound from publication PMC6025622, “A Novel Atypical PKC-Iota Inhibitor, Echinochrome A, Enhances Cardiomyocyte Differentiation from Mouse Embryonic Stem Cells” (Marine Drugs, 2018).

For this assay, the target named is T1, atypical protein kinase C-iota (PKCι) (Homo sapiens, UniProt P41743).
T1 construct: gene PRKCI; full-length protein
T1 sequence (P41743 2-596): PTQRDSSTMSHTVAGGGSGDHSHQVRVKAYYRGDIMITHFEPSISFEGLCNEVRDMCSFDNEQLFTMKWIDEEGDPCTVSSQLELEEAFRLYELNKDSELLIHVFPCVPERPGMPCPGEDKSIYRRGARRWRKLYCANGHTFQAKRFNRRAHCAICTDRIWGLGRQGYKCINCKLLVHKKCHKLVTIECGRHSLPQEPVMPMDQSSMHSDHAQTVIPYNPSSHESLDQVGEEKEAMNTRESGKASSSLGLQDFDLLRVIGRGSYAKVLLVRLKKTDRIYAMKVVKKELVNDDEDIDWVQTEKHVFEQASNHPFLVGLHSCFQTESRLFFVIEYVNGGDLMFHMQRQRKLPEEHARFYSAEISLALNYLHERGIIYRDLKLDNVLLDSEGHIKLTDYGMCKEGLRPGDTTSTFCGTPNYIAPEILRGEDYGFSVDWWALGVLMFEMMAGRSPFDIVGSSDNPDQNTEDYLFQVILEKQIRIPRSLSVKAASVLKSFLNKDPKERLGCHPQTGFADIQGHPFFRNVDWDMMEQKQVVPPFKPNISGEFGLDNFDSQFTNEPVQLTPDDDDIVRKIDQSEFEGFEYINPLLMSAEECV
Nature of the assay: surface plasmon resonance, PKCι immobilized by amine coupling; also cell-free kinase assay IC50 […]. The assay is classed as binding. On the technique in general: Surface plasmon resonance follows binding to a sensor surface in real time, without labels.

Turning to `CCc1c(O)c(O)c2c(c1O)C(=O)C(O)=C(O)C2=O` [Ech A, 6-ethyl-2,3,5,7,8-pentahydroxy-1,4-naphthoquinone], the affinity, expressed as Kd, was 6.3 nM.
